Target: T1, AmNaV1 (Apis mellifera NaV1 voltage-gated sodium channel) (Apis mellifera, UniProt C9D7C5)
T1 construct: gene PARA; AmNaV1 channel expressed in Xenopus oocytes; with TipE regulatory subunit (honeybee)
Assay: two-microelectrode voltage-clamp in Xenopus oocytes, tail current dose-response
Assay type: cell-based

T1 sequence (C9D7C5 1-2044): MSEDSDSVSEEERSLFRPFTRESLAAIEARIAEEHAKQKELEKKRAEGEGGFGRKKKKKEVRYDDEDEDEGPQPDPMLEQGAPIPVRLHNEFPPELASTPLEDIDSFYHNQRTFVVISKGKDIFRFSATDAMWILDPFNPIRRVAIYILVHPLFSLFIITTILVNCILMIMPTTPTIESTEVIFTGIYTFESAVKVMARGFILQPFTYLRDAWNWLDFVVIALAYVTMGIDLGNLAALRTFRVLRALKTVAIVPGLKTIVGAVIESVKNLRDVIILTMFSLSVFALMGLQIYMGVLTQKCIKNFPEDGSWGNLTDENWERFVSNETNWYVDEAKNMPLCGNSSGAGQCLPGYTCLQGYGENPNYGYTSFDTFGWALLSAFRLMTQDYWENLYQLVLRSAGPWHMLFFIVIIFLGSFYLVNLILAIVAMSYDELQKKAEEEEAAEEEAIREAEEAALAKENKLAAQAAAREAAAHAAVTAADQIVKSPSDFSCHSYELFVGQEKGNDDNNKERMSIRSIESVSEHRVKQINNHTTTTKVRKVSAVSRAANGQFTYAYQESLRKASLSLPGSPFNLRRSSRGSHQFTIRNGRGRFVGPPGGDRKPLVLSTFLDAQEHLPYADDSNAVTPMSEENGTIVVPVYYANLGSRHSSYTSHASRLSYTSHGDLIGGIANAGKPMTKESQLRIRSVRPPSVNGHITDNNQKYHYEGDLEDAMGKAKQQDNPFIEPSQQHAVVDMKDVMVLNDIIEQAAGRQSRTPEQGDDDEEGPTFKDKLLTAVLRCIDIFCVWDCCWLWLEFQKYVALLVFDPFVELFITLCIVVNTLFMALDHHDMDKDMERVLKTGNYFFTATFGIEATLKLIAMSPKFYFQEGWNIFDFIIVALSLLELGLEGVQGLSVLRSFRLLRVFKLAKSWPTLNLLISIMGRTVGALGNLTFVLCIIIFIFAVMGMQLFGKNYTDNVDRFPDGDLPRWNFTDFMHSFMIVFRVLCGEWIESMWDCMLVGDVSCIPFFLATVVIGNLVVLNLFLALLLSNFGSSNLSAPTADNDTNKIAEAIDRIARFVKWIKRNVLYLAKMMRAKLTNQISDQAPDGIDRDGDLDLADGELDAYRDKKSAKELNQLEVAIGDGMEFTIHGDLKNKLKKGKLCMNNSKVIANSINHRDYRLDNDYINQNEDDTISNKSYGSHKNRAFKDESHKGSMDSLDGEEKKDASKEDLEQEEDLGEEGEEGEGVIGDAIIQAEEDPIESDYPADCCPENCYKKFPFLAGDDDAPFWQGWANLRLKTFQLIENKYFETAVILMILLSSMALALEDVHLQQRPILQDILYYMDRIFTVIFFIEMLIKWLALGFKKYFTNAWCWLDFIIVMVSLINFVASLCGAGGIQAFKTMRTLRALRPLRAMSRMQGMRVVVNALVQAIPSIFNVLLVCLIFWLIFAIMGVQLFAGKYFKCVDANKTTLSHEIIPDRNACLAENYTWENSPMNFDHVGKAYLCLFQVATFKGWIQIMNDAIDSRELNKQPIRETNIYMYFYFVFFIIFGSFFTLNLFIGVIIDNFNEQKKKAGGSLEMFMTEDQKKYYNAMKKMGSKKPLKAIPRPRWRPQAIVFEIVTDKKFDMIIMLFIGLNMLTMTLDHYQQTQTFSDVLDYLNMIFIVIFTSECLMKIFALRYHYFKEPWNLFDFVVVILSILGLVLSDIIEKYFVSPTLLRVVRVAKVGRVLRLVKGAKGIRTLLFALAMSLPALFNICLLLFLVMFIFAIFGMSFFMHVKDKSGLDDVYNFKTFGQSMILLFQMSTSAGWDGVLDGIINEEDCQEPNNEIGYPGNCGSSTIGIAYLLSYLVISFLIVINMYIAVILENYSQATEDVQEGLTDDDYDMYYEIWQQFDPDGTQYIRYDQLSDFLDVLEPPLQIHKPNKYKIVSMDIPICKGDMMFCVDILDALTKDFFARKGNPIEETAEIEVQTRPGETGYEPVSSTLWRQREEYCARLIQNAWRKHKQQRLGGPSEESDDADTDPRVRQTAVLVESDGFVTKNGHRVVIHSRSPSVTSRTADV
T1 sequence (A0A120HXK1 1-238 partner): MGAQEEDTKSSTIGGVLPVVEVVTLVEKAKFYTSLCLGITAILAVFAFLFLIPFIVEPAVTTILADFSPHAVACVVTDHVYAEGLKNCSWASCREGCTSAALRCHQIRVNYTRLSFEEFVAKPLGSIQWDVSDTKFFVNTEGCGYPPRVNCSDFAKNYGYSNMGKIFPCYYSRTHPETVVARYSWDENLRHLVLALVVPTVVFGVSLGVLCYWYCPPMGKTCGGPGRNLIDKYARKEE

## CC(C)C(C(=O)OC(C#N)c1cccc(Oc2ccccc2)c1)c1ccc(Cl)cc1 (stereo not shown) [fenvalerate]
  EC50: 290 nM
